According to patent publication US11174230B2, “(E)-4-(4-acrylamidophenoxy)-N-methylpicolinamide conjugates as potential anticancer agents” (Council of Scientific & Industrial Research, priority 2016, dated 2021):

How the values were obtained:
Conditions in all cases: after 48 h of drug treatment, average of three individual experiments
SKOV3 = assay: MTT cytotoxicity assay, SKOV3 ovarian cancer cells; type: cell-based
Excerpt: (§1) The (E)-4-(4-acrylamidophenoxy)-N-methylpicolinamide conjugates of general formulae 6a-6z and 7a-7aj have been evaluated for their cytotoxicity in selected human cancer cell lines i.e., lung (A549), prostate (DU-145), ovarian (SKOV3) and liver (HepG2) using MTT assay and the values obtained were compared to a standard drug sorafenib, with the concentration (treatment done at ranging from 10^−4 to 10^−8 M) of the compound produces to 50% inhibition of cell growth (IC50) as shown in Table 1. […] The IC50 values (in μM) for compounds 6b, 6c, 6d, 6e, 6g, 6l, 6m, 6o, 6p, 6q, 6t, 6z, 7b and 7g have been illustrated in Table 1.

HepG2 = assay: MTT cytotoxicity assay, HepG2 liver cancer cells; type: cell-based, human
Excerpt: as §1

DU145 = assay: MTT cytotoxicity assay, DU145 prostate cancer cells; type: cell-based
Excerpt: as §1

A549 = assay: MTT cytotoxicity assay, A549 lung cancer cells; type: cell-based
Excerpt: as §1

Row | SMILES | IC50 (SKOV3; SK-OV-3, Human ovarian cancer) [µM] | IC50 (HepG2; Homo sapiens, HepG2, 48 h) [µM] | IC50 (HepG2) [µM] | IC50 (DU145; DU-145, Human prostate cancer) [µM] | IC50 (A549; A549, Human lung cancer) [µM] | IC50 (SKOV3; Human ovarian cancer) [µM] | IC50 (A549; Human lung cancer) [µM] | IC50 (DU145; Human prostate cancer) [µM]
1 | CNC(=O)c1cc(Oc2ccc(NC(=O)/C=C/c3ccc(OC)cc3)cc2)ccn1 [Compound 6b, (E)-4-(4-(3-(4-methoxyphenyl)acrylamido)phenoxy)-N-methylpicolinamide] | 10.6 ± 0.32 | 8 to 13 | 9.5 |  |  |  |  | 
2 | CNC(=O)c1cc(Oc2ccc(NC(=O)/C=C/c3cccc(OC)c3OC)cc2)ccn1 [Compound 6c, (E)-4-(4-(3-(2,3-dimethoxyphenyl)acrylamido)phenoxy)-N-methylpicolinamide] |  | 8 to 13 | 12.4 ± 0.16 |  |  |  |  | 
3 | CNC(=O)c1cc(Oc2ccc(NC(=O)/C=C/c3cc(OC)c(OC)c(OC)c3)cc2)ccn1 [Compound 6d, (E)-N-methyl-4-(4-(3-(3,4,5-trimethoxyphenyl)acrylamido)phenoxy)picolinamide] |  | 8 to 13 | 10.2 | 21.1 ± 0.18 |  |  |  | 
4 | CNC(=O)c1cc(Oc2ccc(NC(=O)/C=C/c3cc(OC)ccc3OC)cc2)ccn1 [Compound 6e, (E)-4-(4-(3-(2,5-dimethoxyphenyl)acrylamido)phenoxy)-N-methylpicolinamide] |  | 8 to 13 | 10.1 | 29.5 ± 0.26 |  |  |  | 
5 | CNC(=O)c1cc(Oc2ccc(NC(=O)/C=C/c3cccc(O)c3)cc2)ccn1 [Compound 6g, (E)-4-(4-(3-(3-hydroxyphenyl)acrylamido)phenoxy)-N-methylpicolinamide] | 12 ± 0.11 | 8 to 13 | 10.9 ± 0.22 |  |  |  |  | 
6 | CNC(=O)c1cc(Oc2ccc(NC(=O)/C=C/c3ccc(Cl)cc3)cc2)ccn1 [Compound 6l, (E)-4-(4-(3-(4-chlorophenyl)acrylamido)phenoxy)-N-methylpicolinamide] | 12.6 ± 0.28 | 8 to 13 | 9.6 | 17.9 ± 0.24 |  |  |  | 
7 | CNC(=O)c1cc(Oc2ccc(NC(=O)/C=C/c3ccc(Cl)c(Cl)c3)cc2)ccn1 [Compound 6m, (E)-4-(4-(3-(3,4-dichlorophenyl)acrylamido)phenoxy)-N-methylpicolinamide] |  | 8 to 13 | 12.4 ± 0.32 | 23.3 ± 0.28 | 9.5 ± 0.22 |  |  | 
8 | CNC(=O)c1cc(Oc2ccc(NC(=O)/C=C/c3ccc(F)cc3)cc2)ccn1 [Compound 6o, (E)-4-(4-(3-(4-fluorophenyl)acrylamido)phenoxy)-N-methylpicolinamide] |  | 8 to 13 | 12.5 ± 0.18 |  |  |  |  | 
9 | CNC(=O)c1cc(Oc2ccc(NC(=O)/C=C/c3ccc(F)cc3F)cc2)ccn1 [Compound 6p, (E)-4-(4-(3-(2,4-difluorophenyl)acrylamido)phenoxy)-N-methylpicolinamide] |  | 8 to 13 | 13.1 ± 0.26 |  | 49.4 ± 0.54 |  |  | 
10 | CNC(=O)c1cc(Oc2ccc(NC(=O)/C=C/c3ccc(F)c(F)c3)cc2)ccn1 [Compound 6q, (E)-4-(4-(3-(3,4-difluorophenyl)acrylamido)phenoxy)-N-methylpicolinamide] | 11.2 ± 0.26 | 8 to 13 | 11.1 ± 0.14 |  |  |  |  | 
11 | CNC(=O)c1cc(Oc2ccc(NC(=O)/C=C/c3ccc(C(F)(F)F)cc3)cc2)ccn1 [Compound 6t, (E)-N-methyl-4-(4-(3-(4-(trifluoromethyl)phenyl)acrylamido)phenoxy)picolinamide] |  | 8 to 13 | 8.2 |  | 22.3 ± 0.22 |  |  | 
12 | CNC(=O)c1cc(Oc2ccc(NC(=O)/C=C/c3ccc([N+](=O)[O-])cc3)cc2)ccn1 [Compound 6z, (E)-N-methyl-4-(4-(3-(4-nitrophenyl)acrylamido)phenoxy)picolinamide] |  | 8 to 13 | 12.2 ± 0.22 | 28.7 ± 0.36 | 30.1 ± 0.28 |  |  | 
13 | CNC(=O)c1cc(Oc2ccc(NC(=O)/C=C/c3ccco3)cc2)ccn1 [Compound 7b, (E)-4-(4-(3-(furan-2-yl)acrylamido)phenoxy)-N-methylpicolinamide] |  | 8 to 13 | 10.2 |  |  |  |  | 
14 | CNC(=O)c1cc(Oc2ccc(NC(=O)/C=C/c3cccs3)cc2)ccn1 [Compound 7g, (E)-N-methyl-4-(4-(3-(thiophen-2-yl)acrylamido)phenoxy)picolinamide] |  | 8 to 13 | 13.2 ± 0.11 | 12.2 ± 0.26 | 24.1 ± 0.44 |  |  | 
15 | CNC(=O)c1cc(Oc2ccc(NC(=O)Nc3ccc(Cl)c(C(F)(F)F)c3)cc2)ccn1 [Sorafenib, reference compound] |  |  | 14.5 |  |  | 9.5 ± 0.12 | 6.1 ± 0.18 | 6.5 ± 0.22
